Several values for one entry are separate records, joined by “and”; a condition that tells them apart may be missing. Equal entries are not always repeated. Toxic doses and inconclusive results are not listed. The calls were made as follows: active = survival T/C of 150% or more; inactive = T/C below 125% in these data.
Test system: C57BL/6 mice, intracerebral ependymoblastoma, median survival T/C
Experiment: NCI In Vivo Anticancer Drug Screen. Data for tumor model Ependymoblastoma (intracerebral) in C57BL/6 mice
Conditions: endpoint: median survival time, higher = longer survival
Protocol: The antitumor activity of compounds was measured in mice bearing transplantable tumors. Survival or tumor size were measured and the results are expressed as the measurement made in the treated group (T) divided by the measurement made in the vehicle treated control group (C). The tumor model used in this assay is Ependymoblastoma (intracerebral) in C57BL/6 mice

[1] = dose: 8.0 mg/kg/injection, schedule: Q01DX005 (ip), vehicle: saline
[2] = dose: 16.0 mg/kg/injection, schedule: Q01DX005 (ip), vehicle: saline with Tween-80
[3] = dose: 32.0 mg/kg/injection, schedule: Q01DX005 (ip), vehicle: saline with Tween-80
[4] = dose: 64.0 mg/kg/injection, schedule: Q01DX005 (ip), vehicle: saline with Tween-80
[5] = dose: 32.0 mg/kg/injection, schedule: Q01DX005 (ip), vehicle: saline
[6] = dose: 64.0 mg/kg/injection, schedule: Q01DX005 (ip), vehicle: saline

Measured: T/C

COc1cc2cc3c4cc(OC)c(OC)cc4cc[n+]3c(C)c2cc1OC (tested in a mixture with another compound)
inactive: dose: 8.0 mg/kg/injection, schedule: Q01DX001 (ip), vehicle: saline 98 % of control | dose: 16.0 mg/kg/injection, schedule: Q01DX001 (ip), vehicle: saline 91 % of control | dose: 16.0 mg/kg/injection, schedule: Q#A X002 (ip), vehicle: saline 94 % of control | dose: 32.0 mg/kg/injection, schedule: Q01DX001 (ip), vehicle: saline 90 % of control | dose: 32.0 mg/kg/injection, schedule: Q01DX005 (ip), vehicle: Klucel (hydroxypropylcellulose) (HPC) 89 % of control | dose: 32.0 mg/kg/injection, schedule: Q#A X002 (ip), vehicle: saline 97 % of control and 105 % of control | dose: 64.0 mg/kg/injection, schedule: Q01DX001 (oral), vehicle: saline 100 % of control and 104 % of control | dose: 64.0 mg/kg/injection, schedule: Q01DX005 (ip), vehicle: Klucel (hydroxypropylcellulose) (HPC) 103 % of control and 107 % of control | dose: 64.0 mg/kg/injection, schedule: Q#A X002 (ip), vehicle: saline 111 % of control | dose: 128.0 mg/kg/injection, schedule: Q01DX001 (oral), vehicle: saline 100 % of control and 103 % of control | dose: 128.0 mg/kg/injection, schedule: Q01DX005 (ip), vehicle: Klucel (hydroxypropylcellulose) (HPC) 118 % of control and 121 % of control | dose: 128.0 mg/kg/injection, schedule: Q#A X002 (ip), vehicle: saline 103 % of control and 106 % of control | dose: 256.0 mg/kg/injection, schedule: Q01DX001 (ip), vehicle: saline 87 % of control | dose: 256.0 mg/kg/injection, schedule: Q01DX001 (oral), vehicle: saline 88 % of control and 103 % of control | dose: 256.0 mg/kg/injection, schedule: Q01DX005 (ip), vehicle: Klucel (hydroxypropylcellulose) (HPC) 118 % of control | dose: 256.0 mg/kg/injection, schedule: Q#A X002 (ip), vehicle: saline 87 % of control and 98 % of control | dose: 512.0 mg/kg/injection, schedule: Q01DX001 (oral), vehicle: saline 100 % of control and 102 % of control | dose: 1024.0 mg/kg/injection, schedule: Q01DX001 (oral), vehicle: saline 100 % of control and 107 % of control

NNC(=O)c1ccncc1
inactive: dose: 28.75 mg/kg/injection, schedule: Q01DX005 (ip), vehicle: saline 94 % of control | dose: 57.5 mg/kg/injection, schedule: Q01DX005 (ip), vehicle: saline 102 % of control | dose: 115.0 mg/kg/injection, schedule: Q01DX005 (ip), vehicle: saline 105 % of control

OC(CBr)C(O)C(O)C(O)CBr (stereo not given)
inactive: [1] 101 % of control | dose: 12.0 mg/kg/injection, schedule: Q01DX005 (ip), vehicle: saline 89 % of control | dose: 18.0 mg/kg/injection, schedule: Q01DX005 (ip), vehicle: saline 100 % of control | dose: 27.0 mg/kg/injection, schedule: Q01DX005 (ip), vehicle: saline 95 % of control | dose: 32.0 mg/kg/injection, schedule: Q01DX001 (ip), vehicle: Klucel (hydroxypropylcellulose) (HPC) 108 % of control | dose: 32.0 mg/kg/injection, schedule: Q01DX001 (oral), vehicle: Klucel (hydroxypropylcellulose) (HPC) 96 % of control | dose: 32.0 mg/kg/injection, schedule: Q01DX005 (oral), vehicle: Klucel (hydroxypropylcellulose) (HPC) 97 % of control | dose: 50.0 mg/kg/injection, schedule: Q01DX005 (ip), vehicle: saline 107 % of control | dose: 60.0 mg/kg/injection, schedule: Q01DX005 (ip), vehicle: saline 116 % of control | dose: 64.0 mg/kg/injection, schedule: Q01DX001 (ip), vehicle: Klucel (hydroxypropylcellulose) (HPC) 111 % of control | dose: 64.0 mg/kg/injection, schedule: Q01DX001 (oral), vehicle: Klucel (hydroxypropylcellulose) (HPC) 99 % of control | dose: 64.0 mg/kg/injection, schedule: Q01DX005 (oral), vehicle: Klucel (hydroxypropylcellulose) (HPC) 102 % of control | dose: 100.0 mg/kg/injection, schedule: Q01DX001 (ip), vehicle: Klucel (hydroxypropylcellulose) (HPC) 103 % of control | dose: 100.0 mg/kg/injection, schedule: Q01DX005 (ip), vehicle: saline 92 % of control and 120 % of control | dose: 100.0 mg/kg/injection, schedule: Q#A X002 (ip), vehicle: Klucel (hydroxypropylcellulose) (HPC) 102 % of control | dose: 128.0 mg/kg/injection, schedule: Q01DX001 (ip), vehicle: Klucel (hydroxypropylcellulose) (HPC) 109 % of control | dose: 128.0 mg/kg/injection, schedule: Q01DX001 (oral), vehicle: Klucel (hydroxypropylcellulose) (HPC) 100 % of control | dose: 200.0 mg/kg/injection, schedule: Q01DX001 (ip), vehicle: Klucel (hydroxypropylcellulose) (HPC) 102 % of control and 112 % of control and 115 % of control | dose: 200.0 mg/kg/injection, schedule: Q01DX005 (ip), vehicle: saline 96 % of control and 107 % of control | dose: 200.0 mg/kg/injection, schedule: Q#A X002 (ip), vehicle: Klucel (hydroxypropylcellulose) (HPC) 102 % of control and 106 % of control | dose: 256.0 mg/kg/injection, schedule: Q01DX001 (ip), vehicle: Klucel (hydroxypropylcellulose) (HPC) 122 % of control | dose: 256.0 mg/kg/injection, schedule: Q01DX001 (oral), vehicle: Klucel (hydroxypropylcellulose) (HPC) 101 % of control | dose: 400.0 mg/kg/injection, schedule: Q01DX001 (ip), vehicle: Klucel (hydroxypropylcellulose) (HPC) 105 % of control and 106 % of control | dose: 400.0 mg/kg/injection, schedule: Q#A X002 (ip), vehicle: Klucel (hydroxypropylcellulose) (HPC) 111 % of control | dose: 512.0 mg/kg/injection, schedule: Q01DX001 (ip), vehicle: Klucel (hydroxypropylcellulose) (HPC) 96 % of control | dose: 512.0 mg/kg/injection, schedule: Q01DX001 (oral), vehicle: Klucel (hydroxypropylcellulose) (HPC) 100 % of control | dose: 1024.0 mg/kg/injection, schedule: Q01DX001 (ip), vehicle: Klucel (hydroxypropylcellulose) (HPC) 96 % of control | dose: 1024.0 mg/kg/injection, schedule: Q01DX001 (oral), vehicle: Klucel (hydroxypropylcellulose) (HPC) 100 % of control

Nc1ccc(S(N)(=O)=O)cc1
inactive: dose: 45.0 mg/kg/injection, schedule: Q01DX005 (ip), vehicle: saline with Tween-80 97 % of control | dose: 90.0 mg/kg/injection, schedule: Q01DX005 (ip), vehicle: saline with Tween-80 88 % of control | dose: 180.0 mg/kg/injection, schedule: Q01DX005 (ip), vehicle: saline with Tween-80 96 % of control | dose: 360.0 mg/kg/injection, schedule: Q01DX005 (ip), vehicle: saline with Tween-80 100 % of control | dose: 720.0 mg/kg/injection, schedule: Q01DX005 (ip), vehicle: saline with Tween-80 90 % of control

C[C@]1(O)CC[C@H]2[C@@H]3CCC4=CC(=O)CC[C@]4(C)[C@@]3(F)[C@@H](O)C[C@@]21C
inactive: dose: 8.0 mg/kg/injection, schedule: Q01DX005 (ip), vehicle: saline with Tween-80 94 % of control and 99 % of control | [2] 93 % of control and 104 % of control | [3] 102 % of control and 105 % of control | [4] 93 % of control and 96 % of control | dose: 128.0 mg/kg/injection, schedule: Q01DX005 (ip), vehicle: saline with Tween-80 93 % of control and 96 % of control | dose: 256.0 mg/kg/injection, schedule: Q01DX005 (ip), vehicle: saline with Tween-80 94 % of control and 100 % of control | dose: 512.0 mg/kg/injection, schedule: Q01DX005 (ip), vehicle: saline with Tween-80 93 % of control and 103 % of control

NC(C/[N+]([O-])=N/O)C(=O)O (stereo not given)
inactive: dose: 7.0 mg/kg/injection, schedule: Q01DX005 (ip), vehicle: saline 119 % of control | dose: 14.0 mg/kg/injection, schedule: Q01DX005 (ip), vehicle: saline 119 % of control | dose: 56.0 mg/kg/injection, schedule: Q01DX005 (ip), vehicle: saline 95 % of control

CC/C(=C(/CC)c1ccc(O)cc1)c1ccc(O)cc1
inactive: [1] 94 % of control | [2] 101 % of control | dose: 16.0 mg/kg/injection, schedule: Q01DX005 (ip), vehicle: saline 100 % of control | [3] 112 % of control | [5] 99 % of control | [4] 100 % of control | [6] 110 % of control

CCCCCCCCCCCCCC(=O)OC12CC(C)C3(O)C(C=C(CO)C(O)C4(O)C(=O)C(C)=CC43)C1C2(C)C (stereo not given)
inactive: dose: 0.13 mg/kg/injection, schedule: Q01DX005 (ip), vehicle: acetone 100 % of control | dose: 0.25 mg/kg/injection, schedule: Q01DX005 (ip), vehicle: acetone 97 % of control | dose: 0.5 mg/kg/injection, schedule: Q01DX005 (ip), vehicle: acetone 86 % of control

Cc1c2cc[n+](C)cc2c(C)c2c1[nH]c1ccc(O)cc12
inactive: dose: 0.12 mg/kg/injection, schedule: Q01DX005 (ip), vehicle: saline 100 % of control | dose: 0.25 mg/kg/injection, schedule: Q01DX005 (ip), vehicle: saline 101 % of control and 112 % of control | dose: 0.5 mg/kg/injection, schedule: Q01DX005 (ip), vehicle: saline 101 % of control

c1cc2n(n1)CCN2
inactive: [5] 108 % of control | [6] 100 % of control | dose: 128.0 mg/kg/injection, schedule: Q01DX005 (ip), vehicle: saline 102 % of control

Reference: PubChem BioAssay AID222 (DTP/NCI, 2004)
